The record followed here is patent US11999806B2, “Broad-spectrum polypeptide against enterovirus and application thereof” (WUHAN INSTITUTE OF VIROLOGY, CHINESE ACADEMY OF SCIENCES, priority 2018, dated 2024).

The structures appear in SMILES notation. Several values for one entry are separate records, joined by “and”; a condition that tells them apart may be missing. Identical values can stand only once. Like-named read-outs stand apart in the source and are kept apart here.

The subject of test [1] is EV71. The test can be described thus: Antiviral activity against EV71 in mice, virus copies in hind limb muscle by qRT-PCR. The class given is in vivo, ICR suckling mice. An excerpt: (§1) • (1) 8 2-day-old ICR mice were randomly divided into two groups, 4 in each group.
The test system of test [2] is EV71. The class given is cell-based, enterovirus 71. Particulars: EV71 0.1 MOI, RD cells, 24 h; for Virus inhibition rate (%): CCK-8. Here is the method: • (1) 293T cells were plated in a 24-well cell plate. • (2) After the cells reached 70%-80% confluence, the MEM medium containing 10% serum was replaced with a MEM medium containing 2% serum (0.5 ml/well), and 5 μl of 10^6 PFU/mL EV71 virus per well was added. • (3) After 1 hour, polypeptides P2, 3A-TAT-EP, 3A-EP-DRI and 3A-EP-PEG-PA were added at a final concentration of 0.01 μM, 0.1 μM, 1 μM, and 10 μM, respectively. • (4) Samples were collected 24 hours after virus infection, and RNA was extracted with a total RNA extraction kit. • (5) The supernatant in each well was discarded, then 350 μl of TRK Lysis Buffer was added to the well and the plate was shaken on the shaker for 5 minutes. • (6) 350 μl of 70% ethanol (DEPC-treated) was added to the well and the plate was shaken on the shaker for 5 minutes. • (7) The mixture in the well was transferred to a RNA extraction column and centrifuged at 12000 g for 1 min. • (8) The solution collected in the recovery tube was added back to the column and centrifuged at 12,000 g for 1 min. • (9) RNA washing buffer 1 was added to the column and centrifuged at 12,000 g for 30 s. • (10) RNA washing buffer 2 was added to the column and centrifuged at 12,000 g for 1 min. • (11) Step (10) was repeated once. • (12) The empty column was centrifuged at 12,000 g for 2 min to completely remove residual RNA washing buffer. • (13) 50 μl DEPC-treated water was added to the column and centrifuge at 12000 g for 2 min. • (14) 2 μl RNA sample was used according to one step qRT-PCR kit for fluorescence quantification experiment. 3. […] Each concentration was tested in triplicate. • (3) The diluted virus solution was added to the plate of step (1), 100 μL per well with the final virus concentration was 0.1 MOI. Wells without polypeptide and virus (well without treatment), wells with virus only were used as controls. • (4) The mixture of step (2) was added to the 96-well plate plated with cells in step (1) and incubated in 5% CO2 at 37° C. for 24 h. Then CCK8 kit was used to determine the inhibitory effect of the polypeptide on virus. • (5) The inhibition rate of different concentrations of polypeptides on viral infection was calculated using the following formula: OD means the value of OD450-OD630, inhibition rate=(OD well with treatment−OD well with virus only)×100%/(OD well without treatment−OD well with virus only)
• (1) RD cells in good growth state were plated in a 96-well plate. • (2) After the cells reached 70%-80% confluence, the MEM medium containing 10% serum was replaced with a MEM medium containing 2% serum. Group without polypeptide and virus, and group with virus but without polypeptide were included as controls. The final virus concentration was 0.1 MOI. • (3) 1 h later, polypeptide CR at a final concentration of 5 μM, 2.5 μM, 1.25 μM, 0.625 μM, 0.3125 μM, and 0.15625 μM was added, respectively. Group without polypeptide and virus, and group with virus but without polypeptide were set as controls. • (4) 24 hours after virus infection, when the change in the control group with only virus was obvious, 10 μl of viable cell detection agent CCK-8 was added to each well and mixed well. • (5) The plate was incubated at 37° C. for 2 h. • (6) The absorbance value at OD450 was measured with a microplate reader. Inhibition rate of polypeptide=(OD well with treatment−OD well with virus only)×100%/(OD well without treatment−OD well with virus only), OD refers to the value of OD450-OD630.
• (1) RD cells in good growth state were plated in a 96-well plate. • (2) After the cells reached 70%-80% confluence, the MEM medium containing 10% serum was replaced with a MEM medium containing 2% serum. Group without polypeptide and virus, and group with virus but without polypeptide were included as controls. The final virus concentration was 0.1 MOI. • (3) 1 h later, polypeptide CR at a final concentration of 2.5 μM, 1.25 μM, 0.625 μM, 0.3125 μM, and 0.15625 μM was added, respectively. […]

The subject of the next test is CVA16. Kind of test: Antiviral activity against CVA16 in mice, virus copies in muscle by qRT-PCR. The conditions noted are these: 10 mg/kg i.p. every 12 h for 5 days vs PBS. The class given is in vivo, ICR suckling mice.
Source text: as §1
3. The Procedure for Detecting the Antiviral Activity of P1 Against CVA16 in Mice is Similar as the EV71 Experiment.
3. The Procedure for Detecting the Antiviral Activity of CR Against CVA16 in Mice is Similar to the EV71 Experiment.

In the case of `N=C(N)NCCC[C@H](NC(=O)[C@H](CS)NC(=O)CNC(=O)[C@H](CO)NC(=O)CNC(=O)[C@H](CCCNC(=N)N)NC(=O)[C@H](CCCNC(=N)N)NC(=O)[C@H](CCCNC(=N)N)NC(=O)[C@H](CCC(N)=O)NC(=O)[C@H](CCCNC(=N)N)NC(=O)[C@H](CCCNC(=N)N)NC(=O)[C@H](CCCCN)NC(=O)[C@H](CCCCN)NC(=O)[C@H](CCCNC(=N)N)NC(=O)CNC(=O)[C@@H](N)Cc1ccc(O)cc1)C(=O)O` [CR], the “EV71 viral load in mice, in words” value with EV71 [1] (10 mg/kg i.p. every 12 h for 5 days vs PBS) is listed as “can significantly reduce the EV71 viral load in mice”. The “Number of EV71 virus copy in muscle tissue (Copies/g)” value with EV71 [1] (2-day-old ICR mice, EV71 i.p., 10 mg/kg polypeptide i.p. every 12 h for 5 days, individual animals, 10 mg/kg) is 1.88e+007 Copies/g and 1.122e+007 Copies/g and 1.738e+007 Copies/g and 9852432.0000 Copies/g. Besides, the “Virus inhibition rate (%)” value in the test on EV71 [2] (0.15625 μM) is −4.346% and −7.143% and −8.595%; with EV71 [2] (0.625 μM) it was 16.42% and 7.119% and 16.77%; in the test on EV71 [2] (1.25 μM), 50.8% and 47.5% and 45.63%; with EV71 [2] (2.5 μM), 78.26% and 70.5% and 64.43%; in the test with EV71 [2] (5 μM), 74.47% and 71.5% and 69.26%. In the test on EV71 [2] (read-out: IC50 against EV71 by CCK8 method), the IC50 was found to be 1700 nM. Besides, the “CVA16 viral load in mice, in words” value in the test on CVA16 was “can significantly reduce the viral load of CVA16 in mice”.
